Measured values: patent US20050101618A1, “Selective erbB2 inhibitor/anti-erbB antibody combinations in the treatment of cancer” (Pfizer Inc, priority 2003, published 2005)

Legend:
[1] = test system: BT-474 human breast adenocarcinoma; experiment: BT-474 xenograft tumor growth inhibition in athymic female mice; assay type: in vivo
Description: The activity of the compounds of formula 1, in vivo, can be determined by the amount of inhibition of tumor growth by a test compound relative to a control. The tumor growth inhibitory effects of various compounds are measured according to the method of Corbett T. H., et al., “Tumor Induction Relationships in Development of Transplantable Cancers of the Colon in Mice for Chemotherapy Assays, with a Note on Carcinogen Structure”, Cancer Res., 35, 2434-2439 (1975) and Corbett T. H., et al., “A Mouse Colon-tumor Model for Experimental Therapy”, Cancer Chemother. Rep. (Part 2)”, 5, 169-186 (1975), with slight modifications. Tumors are induced in the left flank by subcutaneous (sc) injection of 5 million log phase cultured tumor cells (BT-474 human breast adenocarcinoma) suspended in Matrigel (1:1 in PBS). […] Rep., 3, 1-104 (1972). Results are expressed as percent inhibition, according to the formula: Inhibition (%)=(TuWcontrol−TuWtest)/TuWcontrol×100%. The flank site of tumor implantation provides reproducible dose/response effects for a variety of chemotherapeutic agents, and the method of measurement (tumor diameter) is a reliable method for assessing tumor growth rates.
Statistical Analysis: The statistical analysis of tumor growth was done using SAS Version 8, PROC GLM by Non-clinical statistical group.

[2] = Whole blood pharmacokinetics of agent 182 in BT-474 tumor-bearing mice (LC-MS/MS); assay type: in vivo; conditions: for Cmax: mouse; for Cave0-2 h of Agent 182: day 28
Description: (§1) Whole blood samples (˜50 μl) were collected at 0.5, 1, 2, 4 & 8 h post-dose on day 28 for PK analysis as described below. Tumors were isolated 0.5 h post-dose on day 28 for PD analysis by ELISA.
Blood Sample Analysis: Aliquots (100 μL) of whole blood were diluted with 100 μL acetonitrile (25%) containing an internal standard (CP-702,453, 0.5 μg/ml). Samples were extracted with methyl-tert-butyl ether (MTBE) and 0.1M sodium hydroxide by liquid-liquid extraction using a 96-well technology. After brief vortexing, samples were centrifuged (3000 rpm for 10 min) and the supernatant was transferred into a 96-well plate and evaporated to dryness at 40° C. under a slow stream of nitrogen gas. The residue was reconstituted with 200 μL of 25% acetonitrile and vortexed for approximately 2 min.
The mobile phase was delivered as 90% 10 mM ammonium acetate with 0.1% formic acid and 10% acetonitrile for the first 1 min followed by a linear gradient from 10% to 90% acetonitrile over 1 min. Then the mobile phase was delivered isocratically at 90% acetonitrile for 1 min before a subsequent gradient back to 10% acetonitrile over 0.1 min. The column was then allowed to re-equilibrate at 90% 10 mM ammonium acetate with 0.1% formic acid and 10% acetonitrile for 1.0 min before the next sample injection.
Data collection and integration were accomplished using Analyst (version 1.2). The ratio of peak area responses of drug relative to internal standard was used to construct a standard curve using a linear least squares regression with a 1/x weighting. The dynamic range of the assay was 1.0 to 1000 ng/mL. The performance of the assay was monitored by inclusion of quality control samples prepared in mouse whole blood from a separate weighing. Further details are located in notebook #62874.
PK Data Calculation: Pharmacokinetic parameters were determined by the noncompartmental methods using WinNonLin™, version 3.2. The maximum whole blood concentration (Cmax) and the time at which this concentration was achieved (Tmax) were directly taken from the raw data. Area under the whole blood concentration versus time curve (AUC) was calculated using linear trapezoidal approximation. For estimation of the means and pharmacokinetic parameters, concentrations at the 0 hr and those <LLOQ (1 ng/mL) were assumed to be 0 ng/mL. The means were calculated only if more than 50% of the data exceeded LLOQ of the assay.

[3] = Body weight and tolerability in BT-474 tumor-bearing mice
Description: Cells were inoculated SC (5 million cells/animal) into female athymic mice. […] The tumor measurements and body weight changes were obtained on days 1, 5, 8, 12, 15, 19, 22, 26 and 28. Tumor volume was calculated by the following formula: Tumor volume (mm^3)=(W×W)/2×L (L=length & W=width).
• Values given represent the average tumor volume (mm^3) ±SE; Values in parenthesis are the average body weight (g). • % Growth Inhibition=[Tumor volume on day 28 of treated group (mm^3)×100/Tumor volume on day 28 of vehicle group (mm^3)]−100 • % Regression=[Tumor volume on day 28 (mm^3)×100/Tumor volume on day 1(mm^3)]−100

[4] = molecular target: T1, erbB2-autophosphorylation (p-erbB2) (Homo sapiens, UniProt P04626); experiment: Tumor p-erbB2 reduction (PD) by ELISA in BT-474 tumor-bearing mice; assay type: in vivo; conditions: 0.5 hr after dosing on day 28
T1 construct: endogenous in cells; host or cells: BT-474 human breast adenocarcinoma cells grown as subcutaneous xenografts in female athymic mice
Description: as §1
The p-erbB2 levels, i.e., the level of the phosphorylated form of erbB2, were also determined in tumor samples of all groups at 0.5 hr post-dosing on day 28 (Table 5).

T1 sequence (P04626 23-1255): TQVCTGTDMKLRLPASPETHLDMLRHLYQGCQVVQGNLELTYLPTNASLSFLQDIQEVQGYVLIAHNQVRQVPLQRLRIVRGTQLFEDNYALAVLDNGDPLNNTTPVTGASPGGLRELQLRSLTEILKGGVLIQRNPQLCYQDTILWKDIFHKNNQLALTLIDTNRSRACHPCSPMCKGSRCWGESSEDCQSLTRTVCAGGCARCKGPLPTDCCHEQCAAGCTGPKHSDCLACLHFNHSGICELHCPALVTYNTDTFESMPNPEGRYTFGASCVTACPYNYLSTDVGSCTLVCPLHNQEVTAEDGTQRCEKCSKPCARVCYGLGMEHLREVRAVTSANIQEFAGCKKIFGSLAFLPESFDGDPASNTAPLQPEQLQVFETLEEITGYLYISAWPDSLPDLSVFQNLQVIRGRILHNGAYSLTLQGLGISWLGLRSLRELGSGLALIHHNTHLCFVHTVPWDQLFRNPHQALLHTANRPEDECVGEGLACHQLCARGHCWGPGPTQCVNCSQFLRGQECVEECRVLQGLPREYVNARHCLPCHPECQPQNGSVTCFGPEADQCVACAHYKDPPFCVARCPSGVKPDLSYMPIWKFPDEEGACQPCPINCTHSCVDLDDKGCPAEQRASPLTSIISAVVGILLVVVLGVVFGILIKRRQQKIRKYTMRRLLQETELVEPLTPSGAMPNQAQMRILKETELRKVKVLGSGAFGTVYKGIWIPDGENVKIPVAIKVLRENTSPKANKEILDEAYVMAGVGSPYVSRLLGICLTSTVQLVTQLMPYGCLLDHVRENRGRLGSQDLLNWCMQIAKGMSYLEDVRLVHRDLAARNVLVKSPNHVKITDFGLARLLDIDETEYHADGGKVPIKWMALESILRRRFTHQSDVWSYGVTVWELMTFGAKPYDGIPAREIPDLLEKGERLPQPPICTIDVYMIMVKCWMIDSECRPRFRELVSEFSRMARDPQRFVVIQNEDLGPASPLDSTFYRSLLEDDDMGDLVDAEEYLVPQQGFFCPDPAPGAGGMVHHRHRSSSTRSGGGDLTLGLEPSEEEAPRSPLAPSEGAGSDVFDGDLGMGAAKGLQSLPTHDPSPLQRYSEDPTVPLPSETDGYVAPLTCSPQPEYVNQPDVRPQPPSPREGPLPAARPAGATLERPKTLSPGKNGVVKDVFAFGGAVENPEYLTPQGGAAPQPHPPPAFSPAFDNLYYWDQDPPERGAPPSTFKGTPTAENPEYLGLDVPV

## COCC(=O)NC/C=C/c1ccc2ncnc(Nc3ccc(Oc4ccc(C)nc4)c(C)c3)c2c1 [Agent 182, E-2-Methoxy-N-(3-{4-[3-methyl-4-(6-methyl-pyridin-3-yloxy)-phenylamino]-quinazolin-6-yl}-allyl)-acetamide]
[1]; 28 days, Agent 182 50 mg/kg PO QD
  % Growth inhibition: 40%
[1]; Agent 182 25 mg/kg PO QD
  Tumor volume Day 28: 327 ± 45 mm^3
[1]; Agent 182 50 mg/kg PO QD
  Tumor volume Day 28: 246 ± 36 mm^3
[1]; background statement
  Efficacy against BT-474 tumors which over-express erbB2: efficacious
[2]; female, athymic, whole blood, po, 25 mg/kg
  Cmax: 365 ng/mL
[2]; female, athymic, whole blood, po, 50 mg/kg
  Cmax: 2440 ± 740 ng/mL
[2]; in vivo, 25 mg/kg group, earlier observations
  Cmax: 417 to 967 ng/mL
[2]; whole blood, Agent 182 25 mg/kg PO QD
  Cave0-2 h of Agent 182: 186 ± 71 ng/mL
[2]; whole blood, Agent 182 50 mg/kg PO QD
  Cave0-2 h of Agent 182: 1050 ± 330 ng/mL
[3]; Agent 182 25 mg/kg PO QD
  Average body weight Day 1: (21) g
  Average body weight Day 28: (23) g
[3]; Agent 182 50 mg/kg PO QD
  Average body weight Day 1: (23) g
  Average body weight Day 28: (25) g
[4]; Agent 182 25 mg/kg PO QD, 25 mg/kg
  % Reduction of erbB2-autophosphorylation: 16 ± 5 (N = 3) %
[4]; Agent 182 25 mg/kg PO QD, listed as agent 182, 25 mg/kg
  % Reduction of erbB2-autophosphorylation: Approximately 16%
[4]; Agent 182 50 mg/kg PO QD
  % Reduction of erbB2-autophosphorylation: 57 ± 5 (N = 4) %
